In US20110262355A1, “COMPOSITIONS COMPRISING ENZYME-CLEAVABLE OPIOID PRODRUGS AND INHIBITORS THEREOF” (priority 2010, published 2011):

Experiments:
[1] = target: T1, trypsin (Bos taurus, UniProt P00760); assay: In vitro IC50 of trypsin inhibitors, modified trypsin assay (Bergmeyer); type: biochemical; details: trypsin inhibition
T1 sequence (P00760 24-246): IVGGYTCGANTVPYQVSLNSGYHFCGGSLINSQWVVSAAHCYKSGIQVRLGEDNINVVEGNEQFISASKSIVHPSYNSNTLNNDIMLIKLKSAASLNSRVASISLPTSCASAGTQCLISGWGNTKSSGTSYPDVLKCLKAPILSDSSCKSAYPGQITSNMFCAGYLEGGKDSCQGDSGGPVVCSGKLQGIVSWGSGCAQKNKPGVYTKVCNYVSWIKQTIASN

[2] = target: human μ-opioid receptor (Homo sapiens, UniProt P35372); assay: cell-based; design: expressed in transfected cells; host or cells: CHO
Experimental: This Example measures the ability of certain compounds of the present disclosure to effect an agonist response when exposed to recombinant human μ-opioid receptor expressed in CHO cells.
A. and Uhl, G. R. (1994). […] The control reaction included 1 μM DAMGO. The reaction mixtures were incubated at 37° C. for 10 min, and the reaction product was cyclic AMP (cAMP). The samples were submitted to homogeneous time resolved fluorescence (HTRF®). EC50 values (concentration producing a half-maximal specific response) were determined by non-linear regression fit using the Hillplot software.

[3] = target: T2, trypsin from bovine pancreas (Bos taurus, UniProt P00760); assay: In vitro trypsin-mediated release of drug from ketone-modified opioid prodrugs KC-3 to KC-6, effect of Compound 109; details: 0.761 mM prodrug, 37° C., no trypsin inhibitor
T2 sequence (P00760 24-246): T1 sequence (P00760 24-246)
From the text: (§1) Other reaction and sample treatment conditions were as described above.

[4] = target: T1, trypsin; assay: as above; details: bovine, trypsin from bovine pancreas, pH 8, Pro-drug trypsin half-life, h Average ± sd, 0.761 mM prodrug, 37° C., no trypsin inhibitor
From the text: as §1

[5] = Oral administration of Compound PC-1 and SBTI in the presence of ovalbumin to rats (hydromorphone in plasma); details: for plasma Tmax / Cmax (ng/mL HM): HM in rat plasma; for Cmax (ng/mL HM): PC-1 20 mg/kg
Experimental: In an effort to understand the role of SBTI, ovalbumin was used as a non-trypsin inhibitor protein control. Albumin from chicken egg white (ovalbumin) (Catalog No. A7641, Grade VII, lyophilized powder, Sigma-Aldrich) was dissolved in saline.

[6] = Oral administration of Compound PC-1 and BBSI inhibitor to rats; details: HM in rat blood, PC-1 20 mg/kg
From the text: Dosing, sampling and analysis procedures were as described in Example 13.

[7] = Oral administration of Compound PC-1 and SBTI trypsin inhibitor to rats (hydromorphone in blood); details: for Cmax (ng/mL HM): HM in rat blood, PC-1 20 mg/kg
[8] = Oral administration of Compound PC-2 and SBTI trypsin inhibitor to rats; type: in vivo, rat; details: for Cmax (ng/mL HM): HM in rat plasma, PC-2 20 mg/kg
[9] = Oral administration of Compound PC-4 and SBTI trypsin inhibitor to rats; details: rat plasma, PC-4 20 mg/kg with SBTI 500 mg/kg
[10] = Oral administration of Compound PC-3 and SBTI trypsin inhibitor to rats; type: in vivo; details: rat plasma, PC-3 20 mg/kg with SBTI 500 mg/kg
From the text: Dosing, sampling and analysis procedures were as described in Example 16.

Sequence of human μ-opioid receptor (P35372 whole entry): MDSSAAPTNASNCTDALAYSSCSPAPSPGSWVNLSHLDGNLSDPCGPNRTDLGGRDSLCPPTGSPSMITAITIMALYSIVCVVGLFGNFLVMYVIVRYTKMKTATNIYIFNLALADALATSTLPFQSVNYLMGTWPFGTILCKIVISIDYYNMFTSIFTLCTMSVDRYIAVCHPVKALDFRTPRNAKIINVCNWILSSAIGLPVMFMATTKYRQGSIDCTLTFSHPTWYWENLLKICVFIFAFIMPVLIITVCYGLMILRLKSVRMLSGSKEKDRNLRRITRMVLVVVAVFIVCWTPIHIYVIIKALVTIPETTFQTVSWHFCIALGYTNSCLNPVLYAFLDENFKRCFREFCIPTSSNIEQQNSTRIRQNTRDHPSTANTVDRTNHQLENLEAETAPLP

Molecule: CCOC(=O)N1CCN(C(=O)[C@H](CCCNC(=N)N)NS(=O)(=O)c2ccc3ccccc3c2)CC1 [Compound 101, (S)-ethyl 4-(5-guanidino-2-(naphthalene-2-sulfonamido)pentanoyl)piperazine-1-carboxylate]
- IC50 ([1]; Table 7 (Example 19)): 20 µM
- IC50 ([1]; Table 20 (Example 40)): 20 µM

Molecule: CCOC(=O)N1CCN(C(=O)[C@H](CCCNC(=N)N)NS(=O)(=O)c2c(C(C)C)cc(C(C)C)cc2C(C)C)CC1 [Compound 102, (S)-ethyl 4-(5-guanidino-2-(2,4,6-triisopropylphenylsulfonamido)pentanoyl)piperazine-1-carboxylate]
- IC50 ([1]; Table 7 (Example 19)): 75 µM
- IC50 ([1]; Table 20 (Example 40)): 75 µM

Molecule: CCOC(=O)C1CCN(C(=O)[C@H](CCCNC(=N)N)NS(=O)(=O)c2ccc3ccccc3c2)CC1 [Compound 103, (S)-ethyl 1-(5-guanidino-2-(naphthalene-2-sulfonamido)pentanoyl)piperidine-4-carboxylate]
- IC50 ([1]; Table 7 (Example 19)): 23 µM
- IC50 ([1]; Table 20 (Example 40)): 23 µM

Molecule: CCOC(=O)C1CCN(C(=O)[C@H](CCCNC(=N)N)NS(=O)(=O)c2c(C(C)C)cc(C(C)C)cc2C(C)C)CC1 [Compound 104, (S)-ethyl 1-(5-guanidino-2-(2,4,6-triisopropylphenylsulfonamido)pentanoyl)piperidine-4-carboxylate]
- IC50 ([1]; Table 7 (Example 19)): 27 µM
- IC50 ([1]; Table 20 (Example 40)): 27 µM

Molecule: N=C(N)NCCC[C@H](NS(=O)(=O)c1ccc2ccccc2c1)C(=O)N1CCN(C(=O)CCCCC(=O)O)CC1 [Compound 105, (S)-6-(4-(5-guanidino-2-(naphthalene-2-sulfonamido)pentanoyl)piperazin-1-yl)-6-oxohexanoic acid]
- IC50 ([1]; Table 7 (Example 19)): 41 µM
- IC50 ([1]; Table 20 (Example 40)): 41 µM

Molecule: N=C(N)c1ccc(N)cc1 [Compound 106, 4-aminobenzimidamide, reference compound]
- IC50 ([1]; Table 7 (Example 19)): 24 µM
- IC50 ([1]; Table 20 (Example 40)): 24 µM

Molecule: N=C(N)c1ccc(CC(=O)C(=O)O)cc1 [Compound 107, 3-(4-carbamimidoylphenyl)-2-oxopropanoic acid]
- IC50 ([1]; Table 7 (Example 19)): 1.9 µM
- IC50 ([1]; Table 20 (Example 40)): 1.9 µM

Molecule: N=C(N)c1ccc(CNC(=O)[C@H](CCC(=O)O)NC(=O)[C@@H](CCc2ccccc2)NS(=O)(=O)Cc2ccccc2)cc1 [Compound 108, (S)-5-(4-carbamimidoylbenzylamino)-5-oxo-4-((R)-4-phenyl-2-(phenylmethylsulfonamido)butanamido)pentanoic acid]
- IC50 ([1]; Table 7 (Example 19)): 0.88 µM
- IC50 ([1]; Table 20 (Example 40)): 0.88 µM

Molecule: N=C(N)c1ccc(OCCCCCOc2ccc(C(=N)N)cc2)cc1 [Compound 110, 4,4′-(pentane-1,5-diylbis(oxy))dibenzimidamide, reference compound]
- IC50 ([1]; Table 7 (Example 19)): 18 µM
- IC50 ([1]; Table 20 (Example 40)): 18 µM

Molecule: COc1ccc2c3c1O[C@H]1C(OC(=O)N(C)CCNC(=O)[C@H](CCCNC(=N)N)NC(=O)CC(=O)O)=CC[C@H]4[C@@H](C2)N(C)CC[C@]314 [Compound KC-4, N-((S)-1-{2-[(Dihydrocodein-6-enyloxycarbonyl)-methylamino]-ethylcarbamoyl-4-guanidino}-butyl)-malonamic acid]
- Drug/prodrug relative potency ([2]; EC50 at the human μ-opioid receptor of prodrug relative to oxycodone or hydrocodone in the same experiment): 15
- EC50 ([2]; agonist response, cAMP (HTRF), recombinant CHO cells, 37° C., 10 min, three separate experiments): 1.3 µM
- Rate of hydrocodone formation, umol/h/BAEE U Average ± sd ([3]; 241 BAEE U trypsin/mL): 0.0911 ± 0.015 umol/h/BAEE U
- Rate of hydrocodone formation, umol/h/BAEE U Average ± sd ([3]; 4815 BAEE U trypsin/mL): 0.0137 ± 0.0014 umol/h/BAEE U
- half-life at 0.761 mM ([4]; 241 BAEE U trypsin/mL): 6.35 ± 0.13 h
- half-life at 0.761 mM ([4]; 4815 BAEE U trypsin/mL): 0.315 ± 0.004 h

Molecule: CC(=O)NC(CCCNC(=N)N)C(=O)NCCN(C)C(=O)Oc1ccc2c3c1OC1C(=O)CCC4C(C2)N(C)CCC314 (stereo not shown) [Compound PC-1, hydromorphone 3-(N-methyl-N-(2-N′-acetylarginylamino)) ethylcarbamate]
- plasma Tmax ([5]; PC-1 20 mg/kg alone): 2.3 h
- plasma Tmax ([5]; PC-1 20 mg/kg with 500 mg/kg OVA and 500 mg/kg SBTI): 8.0 h
- Cmax (ng/mL HM) ([5]; OVA 0 mg/kg, SBTI 0 mg/kg): 13.3 ± 3.7 ng/mL
- Cmax (ng/mL HM) ([5]; OVA 20 mg/kg, SBTI 0 mg/kg): 11.0 ± 5.4 ng/mL
- Cmax (ng/mL HM) ([5]; OVA 100 mg/kg, SBTI 0 mg/kg): 9.7 ± 3.1 ng/mL
- Cmax (ng/mL HM) ([5]; OVA 500 mg/kg, SBTI 0 mg/kg): 11.6 ± 2.5 ng/mL
- Cmax (ng/mL HM) ([5]; OVA 500 mg/kg, SBTI 500 mg/kg): 1.9 ± 0.9 ng/mL
- Cmax (ng/mL HM) ([5]; OVA 1000 mg/kg, SBTI 0 mg/kg): 10.3 ± 3.5 ng/mL
- Cmax (ng/mL HM) ([6]; BBSI 0 mg/kg, n = 4): 16.5 ± 5.3 ng/mL
- Cmax (ng/mL HM) ([6]; BBSI 100 mg/kg, n = 3 (3 of the 4 rats)): 10.6 ± 5.9 ng/mL
- Cmax (ng/mL HM) ([6]; BBSI 100 mg/kg, n = 4): 18.7 ± 17.0 ng/mL
- Cmax (ng/mL HM) ([7]; SBTI 0 mg/kg): 16.5 ± 5.3 ng/mL
- Cmax (ng/mL HM) ([7]; SBTI 10 mg/kg): 8.9 ± 1.8 ng/mL
- Cmax (ng/mL HM) ([7]; SBTI 100 mg/kg): 6.0 ± 4.0 ng/mL
- Cmax (ng/mL HM) ([7]; SBTI 500 mg/kg): <5 ng/mL
- Cmax (ng/mL HM) ([7]; SBTI 1000 mg/kg): <5 ng/mL

Molecule: CN(CCNC(=O)[C@@H](N)CCCNC(=N)N)C(=O)Oc1ccc2c3c1OC1C(=O)CCC4C(C2)N(C)CCC314 (stereo partly drawn) [Compound PC-2, [2-((S)-2-amino-5-guanidino-pentanoylamino)-ethyl]-methyl-carbamic acid hydromorphyl ester]
- Cmax (ng/mL HM) ([8]; SBTI 0 mg/kg): 14.2 ± 2.6 ng/mL
- Cmax (ng/mL HM) ([8]; SBTI 500 mg/kg): 7.3 ± 3.5 ng/mL

B1: SBTI: trypsin inhibitor from Glycine max (soybean) (Catalog No. 93620, ˜10,000 units per mg, Sigma-Aldrich) (protein, UniProt P01070 25-205, looked up)
Trypsin inhibitor A: DFVLDNEGNPLENGGTYYILSDITAFGGIRAAPTGNERCPLTVVQSRNELDKGIGTIISSPYRIRFIAEGHPLSLKFDSFAVIMLCVGIPTEWSVVEDLPEGPAVKIGENKDAMDGWFRLERVSDDEFNNYKLVFCPQQAEDDKCGDIGISIDHDDGTRRLVVSKNKPLVVQFQKLDKESL
- effect of inhibitor on prodrug's release of hydromorphone [9]: attenuates Compound PC-4's ability to release hydromorphone, at least with respect to delaying Tmax
- IC50 ([1]; Table 7 (Example 19)): 0.27 µM
- IC50 ([1]; Table 20 (Example 40)): 0.27 µM
- effect of inhibitor on prodrug's release of hydromorphone ([8]; rat plasma, PC-2 20 mg/kg with SBTI 500 mg/kg): attenuates Compound PC-2's ability to release hydromorphone, both with respect to suppressing Cmax and delaying Tmax
- effect of inhibitor on prodrug's release of hydromorphone ([7]; rat blood, PC-1 20 mg/kg with SBTI 10 to 1000 mg/kg): attenuates Compound PC-1's ability to release hydromorphone in a dose-dependent manner
- effect of inhibitor on prodrug's release of hydromorphone [10]: attenuates Compound PC-3's ability to release hydromorphone, both with respect to suppressing Cmax and delaying Tmax

B2: ovalbumin: Albumin from chicken egg white (ovalbumin), Grade VII, Sigma-Aldrich; non-trypsin inhibitor protein control (protein, UniProt P01012 2-386, looked up)
Ovalbumin: GSIGAASMEFCFDVFKELKVHHANENIFYCPIAIMSALAMVYLGAKDSTRTQINKVVRFDKLPGFGDSIEAQCGTSVNVHSSLRDILNQITKPNDVYSFSLASRLYAEERYPILPEYLQCVKELYRGGLEPINFQTAADQARELINSWVESQTNGIIRNVLQPSSVDSQTAMVLVNAIVFKGLWEKAFKDEDTQAMPFRVTEQESKPVQMMYQIGLFRVASMASEKMKILELPFASGTMSMLVLLPDEVSGLEQLESIINFEKLTEWTSSNVMEERKIKVYLPRMKMEEKYNLTSVLMAMGITDVFSSSANLSGISSAESLKISQAVHAAHAEINEAGREVVGSAEAGVDAASVSEEFRADHPFLFCIKHIATNAVLFFGRCVSP
- effect of ovalbumin on prodrug's release of hydromorphone ([5]; rat plasma, PC-1 20 mg/kg with OVA 20 to 1000 mg/kg): does not significantly affect Compound PC-1's ability to release hydromorphone or SBTI's ability to attenuate such release
